Counter-ions that a name gives are not always drawn. Like-named read-outs stand apart in the source and are kept apart here.
Legend:
[1] = tested on: Klebsiella pneumoniae expressing VIM-1 (IHMA599644); type: cell-based; details: VIM-1 strain IHMA599644, with imipenem 1 μg/ml
In short: (§1)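 Clinical isolates (E. coli NDM-1, S. marcescens IMP-1, K. pneumoniae VIM-1) were diluted 1:100 from saline suspension into 1.1×CAMHB and exposed to test compound with imipenem at 1 μg/ml. Plates were incubated at 35° C for 22 hours to 24 hours, and growth was read by absorbance.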

[2] = tested on: Serratia marcescens expressing IMP-1 (CL5741); type: cell-based; details: IMP-1 strain CL5741, with imipenem 1 μg/ml
In short: as §1

[3] = tested on: Escherichia coli expressing NDM-1 (CLB30005, CLB30016); type: cell-based; details: NDM-1 strain, with imipenem 1 μg/ml
In short: as §1

[4] = tested on: Pseudomonas aeruginosa MB9798 vs MB9799; details: fold difference between efflux+ (MB9798) and efflux− (MB9799) strains, imipenem at 2 μg/mL
In short: (§2)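 P. aeruginosa PAO1-derived IMP-1 strains, efflux+ MB9798 and efflux− MB9799, tested by standard microbroth MIC with imipenem and/or ceftazidime fixed, usually at CLSI breakpoint, plus fixed class A/C β-lactamase inhibitor against AmpC. Inhibitor titrated; concentration restoring susceptibility recorded; MB9798/MB9799 fold difference indicates efflux.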

[5] = biological target: VIM-1 (Pseudomonas aeruginosa (strain ATCC 15692 / DSM 22644 / CIP 104116 / JCM 14847 / LMG 12228 / 1C / PRS 101 / PAO1), UniProt A0A0F7KYQ8); assay: biochemical; details: CCF2-FA substrate, 30 pM enzyme, 2 hours at 25° C.
In short: (§3)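 Inhibitor was mixed with the metallo-β-lactamase and CCF2-FA. After 2 hours at 25° C, fluorescence of the coumarin–fluorescein cephalosporin substrate was read. IC50 was calculated with a 4-parameter fit.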

[6] = biological target: IMP-1 (Serratia marcescens, UniProt P52699); assay: biochemical; type: biochemical; details: fluorescence assay, CCF2-FA substrate, 2 pM enzyme, 2 hours at 25° C., read-out: IMP-1 IC50
In short: as §3

[7] = biological target: NDM-1 (Klebsiella pneumoniae, UniProt C7C422); assay: biochemical; type: biochemical; details: fluorescence assay, CCF2-FA substrate, 1 pM enzyme, 2 hours at 25° C., read-out: NDM-1 IC50
In short: as §3

[8] = tested on: Pseudomonas aeruginosa efflux+ (MB9798), IMP-1; type: cell-based; parameters: Concentration of metallo-β-lactamase inhibitor which restores susceptibility of efflux + (MB9798) strain to imipenem: unit not given here; details: efflux+ MB9798; imipenem at 2 μg/mL; in the presence of a class A, C, D serine β-lactamase inhibitor closely related to relebactam
In short: as §2

[9] = tested on: Pseudomonas aeruginosa efflux− (MB9799), IMP-1; type: cell-based; details: efflux− MB9799, imipenem at 2 μg/mL, in the presence of a class A, C, D serine β-lactamase inhibitor closely related to relebactam
In short: as §2

[10] = fluorescence assay, read-out: VIM-1 IC50
[11] = 95% inhibition of bacterial growth

Sequence of IMP-1 (P52699 whole entry, looked up, species assumed): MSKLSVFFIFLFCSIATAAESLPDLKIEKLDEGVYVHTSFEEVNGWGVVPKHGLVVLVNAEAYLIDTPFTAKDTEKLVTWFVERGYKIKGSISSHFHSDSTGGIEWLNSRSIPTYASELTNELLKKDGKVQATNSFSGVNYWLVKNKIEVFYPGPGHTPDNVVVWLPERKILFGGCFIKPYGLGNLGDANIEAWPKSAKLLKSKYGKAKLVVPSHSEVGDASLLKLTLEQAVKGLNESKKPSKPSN
Sequence of NDM-1 (C7C422 whole entry, looked up, species assumed): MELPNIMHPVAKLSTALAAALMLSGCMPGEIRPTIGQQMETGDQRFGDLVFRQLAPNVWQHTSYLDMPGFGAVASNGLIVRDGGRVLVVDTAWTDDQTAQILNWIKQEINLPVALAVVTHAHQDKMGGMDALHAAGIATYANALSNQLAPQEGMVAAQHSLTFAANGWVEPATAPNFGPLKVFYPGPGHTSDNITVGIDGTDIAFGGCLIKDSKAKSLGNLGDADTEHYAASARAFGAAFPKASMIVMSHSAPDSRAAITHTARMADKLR

Row | Compound | Klebsiella pneumoniae MITC95 ([1]; 95% inhibition of growth) | Serratia marcescens MITC95 ([2]; 95% inhibition of growth) | Escherichia coli MITC95 ([3]; 95% inhibition of growth) | Efflux ratio [4] | IC50 ([5]; read-out: VIM-1 IC50, fluorescence assay) | IC50 [6] | IC50 [7] | Concentration of metallo-β-lactamase inhibitor which restores susceptibility of efflux + (MB9798) strain to imipenem [8] | Concentration of metallo-β-lactamase inhibitor which restores susceptibility of efflux − (MB9799) strain to imipenem [9] | IC50 [5, 10] | Escherichia coli MITC95 ([3]; 95% inhibition of growth, dihydrochloride) | Efflux ratio ([4]; dihydrochloride) | IC50 ([5]; VIM-1 IC50, fluorescence assay) | IC50 ([6]; dihydrochloride) | IC50 ([7]; dihydrochloride) | Concentration of metallo-β-lactamase inhibitor which restores susceptibility of efflux − (MB9799) strain to imipenem ([9]; dihydrochloride) | Klebsiella pneumoniae MITC95 [1, 11] | Serratia marcescens MITC95 [2, 11] | Escherichia coli MITC95 [3, 11]
1 | Nc1ccc(-c2ccc(S(=O)(=O)NC3CC(N)C3)c(S(N)(=O)=O)c2-c2nn[nH]n2)cn1 [Example 483, N1-((1R,3R)-3-aminocyclobutyl)-4-(6-aminopyridin-3-yl)-3-(2H-tetrazol-5-yl)benzene-1,2-disulfonamide] | 1.563 µM | 0.7813 µM | 1.758 µM | 1.00 | 0.115 nM | 0.33 nM | 0.0927 nM | 0.7813 | 0.7813 |  |  |  |  |  |  |  |  |  | 
2 | Nc1ccc(-c2ccc(S(=O)(=O)NC[C@H]3CCNC3)c(S(N)(=O)=O)c2-c2nn[nH]n2)cn1 [Example 484, (S)-4-(6-aminopyridin-3-yl)-N1-(pyrrolidin-3-ylmethyl)-3-(2H-tetrazol-5-yl)benzene-1,2-disulfonamide] | 3.125 µM | 0.3906 µM | 0.1953 µM | 1.00 |  | 0.248 nM | 0.102 nM | 0.7813 | 0.7813 | 0.131 nM |  |  |  |  |  |  |  |  | 
3 | Nc1ccc(-c2ccc(S(=O)(=O)N3CCNCC3)c(S(N)(=O)=O)c2-c2nn[nH]n2)cn1 [Example 485, 3-(6-aminopyridin-3-yl)-6-(piperazin-1-ylsulfonyl)-2-(2H-tetrazol-5-yl)benzenesulfonamide] | 1.563 µM | 0.7813 µM | 0.1953 µM | 8.00 |  | 3.58 nM | 2.22 nM | 6.25 | 0.7813 | 2.3 nM |  |  |  |  |  |  |  |  | 
4 | NC[C@@]1(NS(=O)(=O)c2ccc(-c3ccc(N)nc3)c(-c3nn[nH]n3)c2S(N)(=O)=O)CCNC1 [Example 487, (S)-N1-(3-(aminomethyl)pyrrolidin-3-yl)-4-(6-aminopyridin-3-yl)-3-(2H-tetrazol-5-yl)benzene-1,2-disulfonamide dihydrochloride] | 1.563 µM | 0.7813 µM |  |  |  |  |  | 1.563 |  |  | 0.3906 µM | 1.00 | 0.527 nM | 0.803 nM | 0.274 nM | 1.563 |  |  | 
5 | Nc1ccc(-c2ccc(S(=O)(=O)NC[C@@H]3CCCN3)c(S(N)(=O)=O)c2-c2nn[nH]n2)cn1 [Example 488, (S)-4-(6-aminopyridin-3-yl)-N1-(pyrrolidin-2-ylmethyl)-3-(2H-tetrazol-5-yl)benzene-1,2-disulfonamide] | 1.563 µM | 0.1953 µM | 0.1953 µM | 1.00 |  | 0.355 nM | 0.206 nM | 0.7813 | 0.7813 | 0.21 nM |  |  |  |  |  |  |  |  | 
6 | Nc1ccc(-c2ccc(S(=O)(=O)NC[C@H]3CCCN3)c(S(N)(=O)=O)c2-c2nn[nH]n2)cn1 [Example 489, (R)-4-(6-aminopyridin-3-yl)-N1-(pyrrolidin-2-ylmethyl)-3-(2H-tetrazol-5-yl)benzene-1,2-disulfonamide] | 1.563 µM | 0.3906 µM | 0.3906 µM | 2.00 |  | 0.566 nM | 0.246 nM | 1.563 | 0.7813 | 0.267 nM |  |  |  |  |  |  |  |  | 
7 | Nc1ccc(-c2ccc(S(=O)(=O)NC[C@@H]3CCNC3)c(S(N)(=O)=O)c2-c2nn[nH]n2)cn1 [Example 491, (R)-4-(6-aminopyridin-3-yl)-N1-(pyrrolidin-3-ylmethyl)-3-(2H-tetrazol-5-yl)benzene-1,2-disulfonamide] | 1.563 µM | 0.7813 µM | 0.1953 µM | 1.00 |  | 0.271 nM | 0.0939 nM | 0.7813 | 0.7813 | 0.132 nM |  |  |  |  |  |  |  |  | 
8 | Nc1ccc(-c2ccc(S(=O)(=O)NCC3(O)CCNCC3)c(S(N)(=O)=O)c2-c2nn[nH]n2)cn1 [Example 492, 4-(6-aminopyridin-3-yl)-N1-((4-hydroxypiperidin-4-yl)methyl)-3-(2H-tetrazol-5-yl)benzene-1,2 disulfonamide] | 3.125 µM | 1.563 µM | 0.3906 µM | 1.00 |  | 0.52 nM | 0.305 nM | 1.563 | 1.563 |  |  |  | 0.24 nM |  |  |  |  |  | 
9 | Nc1ccc(-c2ccc(S(=O)(=O)NC3CNC3)c(S(N)(=O)=O)c2-c2nn[nH]n2)cn1 [Example 493, 4-(6-aminopyridin-3-yl)-N1-(azetidin-3-yl)-3-(2H-tetrazol-5-yl)benzene-1,2-disulfonamide] | 1.563 µM | 0.3906 µM | 0.3906 µM | 0.50 |  | 0.403 nM | 0.189 nM | 0.3906 | 0.7813 | 0.179 nM |  |  |  |  |  |  |  |  | 
10 | Nc1ccc(-c2ccc(S(=O)(=O)NCC3(O)CNC3)c(S(N)(=O)=O)c2-c2nn[nH]n2)cn1 [Example 495, 4-(6-aminopyridin-3-yl)-N1-((3-hydroxyazetidin-3-yl)methyl)-3-(2H-tetrazol-5-yl)benzene-1,2-disulfonamide] | 1.563 µM | 0.7813 µM | 0.1953 µM | 1.00 |  | 0.328 nM | 0.215 nM | 0.7813 | 0.7813 | 0.301 nM |  |  |  |  |  |  |  |  | 
11 | Cl.Cl.NCCCNS(=O)(=O)c1ccc(-c2ccc(N)nc2)c(-c2nn[nH]n2)c1S(N)(=O)=O [Example 496, N1-(3-aminopropyl)-4-(6-aminopyridin-3-yl)-3-(2H-tetrazol-5-yl)benzene-1,2-disulfonamide hydrogen chloride] |  |  |  | 1.00 |  | 0.576 nM | 0.2 nM | 0.7813 | 0.7813 | 0.175 nM |  |  |  |  |  |  | 1.563 µM | 0.7813 µM | 0.09766 µM

— patent publication US10221163B2 (priority 2015, dated 2019)
